Results from PubChem BioAssay (NCI).
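Results reflect a 48-hour exposure of cells in 96-well plates to compound at five concentrations. At the GI50, growth is halved. TGI marks complete inhibition of growth.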

What was measured:
Experiment in all cases: inhibition of tumour cell growth, NCI panel, 48 h
CCRF-CEM leukemia = test system: CCRF-CEM leukemia
DU-145 prostate = test system: DU-145 prostate
HOP-92 NSCLC = test system: HOP-92 NSCLC
K-562 leukemia = test system: K-562 leukemia
LOX IMVI melanoma = test system: LOX IMVI melanoma
MDA-N = test system: MDA-N
OVCAR-8 ovarian = test system: OVCAR-8 ovarian
SF-539 CNS = test system: SF-539 CNS
U251 CNS = test system: U251 CNS
UO-31 renal = test system: UO-31 renal

Compound	TGI (CCRF-CEM leukemia) [µM]	TGI (DU-145 prostate) [µM]	TGI (HOP-92 NSCLC) [µM]	TGI (K-562 leukemia) [µM]	TGI (LOX IMVI melanoma) [µM]	TGI (MDA-N) [µM]	TGI (OVCAR-8 ovarian) [µM]	TGI (SF-539 CNS) [µM]	TGI (U251 CNS) [µM]	TGI (UO-31 renal) [µM]	GI50 (DU-145 prostate) [µM]
Cc1cc(-c2nc3c(O)cccc3s2)ccc1N	82.9	> 100	58.9	> 100	40.1	76.9	54.4	> 100	> 100	36.6	–
CC(C)(C)NC(=O)[C@H]1CC[C@H]2[C@@H]3CC=C4NC(=O)CC[C@]4(C)[C@H]3CC[C@]12C	> 100	> 100	> 100	> 100	> 100	> 100	> 100	> 100	> 100	> 100	–
CCOC1CC(=O)c2c(Br)sc(Br)c21 (stereo not given)	50.8	32.5	35.3	41.5	42.2	49.6	38.5	69.5	33.1	33.5	–
CN(C)c1nc(=NCc2ccncc2)ss1	49.6	> 100	> 100	47.7	31.1	> 31.6	34.6	> 67	32.1	> 80.9	> 100
Cc1ccc(S(=O)(=O)Oc2cc(N)c3c(n2)CCC3)cc1	> 100	> 100	> 100	> 100	> 100	> 100	> 100	> 100	> 100	> 100	–
CCC1=CCC23C(=O)C=CC(=O)C2(C1)C(=O)c1cccc(OC)c1C3=O (stereo not given)	28.1	32.2	29	72.4	29.9	35.7	29.9	32.9	61.8	22.7	–
CCCCOC(C)(C)/C=C/C(O)[C@](C)(O)[C@H]1[C@H](O)C[C@@]2(C)[C@@H]3CCc4c(cc(OC5OC(CO)C(O)C(O)C5O)c(O)c4C)C3(C)C(=O)C[C@]12C (stereo not given in full)	> 100	> 100	> 100	> 100	> 100	> 100	> 100	> 100	> 100	> 100	–
Cc1ccccc1OC(C)C(=O)NN1C(=O)CC(=O)N(c2ccc(Cl)cc2)C1=S (stereo not given)	57	> 100	56.1	> 100	> 100	> 100	> 100	> 100	> 100	> 100	–
CCOC(=O)c1[nH]cc(C)c1-c1ccn(-c2ccccc2)c1	79.3	> 100	82.8	51	> 100	> 100	> 100	> 100	> 100	> 100	–
CN(C)c1ccc(-c2c(C#N)c(S)n(NS(=O)(=O)c3ccccc3)c(=O)c2C#N)cc1	> 100	> 100	> 100	> 100	> 100	86.5	56.8	53.4	> 100	86.4	–
O=C(CN1CCCCC1)CC(O)(C(F)(F)F)C(F)(F)F	> 100	> 100	> 100	> 100	> 100	> 100	> 100	> 100	> 100	> 100	–
C=C(C)CCC(=O)[C@](C)(O)[C@H]1[C@H](O)C[C@@]2(C)[C@@H]3CCc4c(cc(OC5OC(CO)C(O)C(O)C5O)c(O)c4C)C3(C)C(=O)C[C@]12C (stereo not given in full)	> 100	> 100	> 100	> 100	> 100	> 100	> 100	> 100	> 100	> 100	–
CSCCC(NCc1c(O)ccc2c(-c3ccccc3)cc(=O)oc12)C(=O)O (stereo not given)	> 100	> 100	> 100	> 100	> 100	> 100	> 100	> 100	> 100	> 100	–
O=c1cc(/C=C/c2ccc(O)c(O)c2)oc(/C=C/c2ccc(O)c(O)c2)c1	7.74	12.8	8.78	> 20.7	> 25.2	16.6	22.4	6.73	9.57	15.8	–
O=C1c2ccccc2CN1c1ccc(O)cc1	> 100	> 100	> 100	> 100	> 100	> 100	> 100	> 100	> 100	–	–
CC(C)=CCc1c2c(c3occ(-c4ccc(O)c(O)c4)c(=O)c3c1O)C=CC(C)(C)O2	2.71	9.32	5	5.12	5.22	3.38	9.31	4.14	2.8	2.9	–
O=c1c2ncn(C3CC(O)C(CO)O3)c2nnn1Cc1ccccc1[N+](=O)[O-] (stereo not given)	> 100	> 100	> 100	> 100	> 100	> 100	> 100	> 100	> 100	> 100	–
